# Source: US20260034120A1, “TREATING CANCER WITH LONG-ACTING TOPOISOMERASE I INHIBITOR” (priority 2022, published 2026)
# Tests used:
# [1] = cited from earlier work; for t½: humans, PLX038 prodrug and SN-38 released from it
# MX-1 xenografts = test: PLX038A, TLZ and combination in MX-1 xenografts; assay type: in vivo, mice; conditions: PLX038A 15 μmol/kg, TLZ 0.4 μmol/kg/day
# From the text: When tumors reached 170 mm^3, mice received a single intraperitoneal dose of vehicle, a single intraperitoneal dose of PLX038A (15 μmol/kg), a daily oral dose of talazoparib (0.4 μmol/kg) or a combination of PLX038A (15 μmol/kg) and daily oral TLZ (0.4 μmol/kg) starting on either day 0 (same day as PLX038A dosing) or day 4.
# 22Rv1 ATM KO xenografts = test: PLX038A, TLZ and combination in 22Rv1 ATM KO xenografts; assay type: in vivo
# [2] = test system: metastatic breast cancer with pathogenic germline ATM mutation; test: PLX038 and rucaparib in a patient with ATM deficient breast cancer (NCT04209595); assay type: in vivo, human; conditions: single-agent low-dose PLX038 after rucaparib suspension at 4 months
# Experimental: A patient with metastatic breast cancer and germline ATM mutation was enrolled in the ongoing dose escalation phase of the trial. […] The patient was initially diagnosed with locally advanced invasive ductal carcinoma and was treated with neoadjuvant chemotherapy followed by surgery and radiation. Nine years later, they developed metastatic disease expressing estrogen and progesterone receptors, and was treated with multiple anti-endocrine therapies and chemotherapies including eribulin, abraxane, and carboplatin. […] At enrolment, they had skin lesions on the breast which were painful and pruritic and in addition had involvement of the lung and bones. […] The mutation results from a C to T substitution at nucleotide position 5908 and creates a premature translational stop signal which is expected to result in an absence or disrupted ATM protein. The variant was not present in population databases such as ExaC but has been reported in the literature in individuals with ataxia-telangiectasia and recognized as a founder mutation in the Costa Rican population.
Compound,half-life ([1]; SN-38 formed from CPT-11),t½ [1],T/C3 wk (MX-1 xenografts),"T/C3 wk (22Rv1 ATM KO xenografts; PLX038A 1.9 μmol/kg, TLZ 0.2 μmol/kg/day)","T/C3 wk (22Rv1 ATM KO xenografts; PLX038A 1.95 μmol/kg, TLZ 0.3 μmol/kg/day)","T/C3 wk (22Rv1 ATM KO xenografts; PLX038A 3.75 μmol/kg, TLZ 0.2 μmol/kg/day)","T/C3 wk (22Rv1 ATM KO xenografts; PLX038A 3.75 μmol/kg, TLZ 0.3 μmol/kg/day)","T/C3 wk (22Rv1 ATM KO xenografts; PLX038A 7.5 μmol/kg, TLZ 0.4 μmol/kg/day)",inhibition of tumor growth (22Rv1 ATM KO xenografts; TLZ QD PO 0.2 μmol/kg),inhibition of tumor growth (22Rv1 ATM KO xenografts; TLZ QD PO 0.4 μmol/kg),duration of sustained suppression of the tumor after treatment initiation [2]
CCc1c2c(nc3ccc(O)cc13)-c1cc3c(c(=O)n1C2)COC(=O)[C@]3(O)CC [SN-38],~12 h,about 5 days,,,,,,,,,
"Cn1ncnc1[C@H]1c2n[nH]c(=O)c3cc(F)cc(c23)N[C@@H]1c1ccc(F)cc1 [TLZ, talazoparib]",,,0.21,0.76,0.69,0.76,0.69,0.72,insignificantly inhibitory,modestly inhibitory,
O-[7-(tetra-polyethylene glycol ether)-carboxamido-1-cyano-2-heptyl]-N-(10′-methoxy-7′-ethyl-camptothecin)-N-[4′-(diethylcarbamoyl)phenyl)]carbamate [PLX038],,about 5 days,,,,,,,,,12 months
